Experimental data reported in patent publication US10190093B2, “Artificial oocyte activation” (The Curators of the University of Missouri, priority 2013, dated 2019).
Where “and” joins values, the source holds several entries; their conditions need not be identical. Identical values can stand only once. Marks after values point to notes of the source that are not given here.

How the values were obtained:
porcine oocytes = test: TPEN as main oocyte activating reagent after a smaller Ca2+ increase (electroporation in 0.1 mM Ca2+); type: cell-based, pig; conditions: for Day 6 Blastocysts (%) / Day 7 Blastocysts (%): 0.1 mM Ca2+ electroporation
Experimental: Oocytes were obtained from either pre-pubertal gilt ovaries from an abattoir (Farmland Foods Inc., Milan, Mo.), or sow-derived oocytes that were purchased from Applied Reproductive Technology (Madison, Wis.). Immature oocytes from gilt ovaries were aspirated from medium size (3-6 mm) follicles by using an 18 gauge hypodermic needle attached to a 10 mL syringe. Oocytes with evenly dark cytoplasm and intact surrounding cumulus cells were then selected for maturation. Around 50 cumulus oocyte complexes were place in a well containing 500 μL of maturation medium, TCM 199 (Invitrogen, Grand Island, N.Y.) with 3.05 mM glucose, 0.91 mM sodium pyruvate, 0.57 mM cysteine, 10 ng/mL epidermal growth factor (EGF), 0.5 mg/mL luteinizing hormone (LH), 0.5 mg/mL follicle stimulating hormone (FSH), 10 ng/mL gentamicin (APP Pharm, Schaumburg, Ill.), and 0.1% polyvinyl alcohol (PVA) for 42-44 hr at 38.5° C., 5% CO2, in humidified air. […] At the end of the maturation, the surrounding cumulus cells were removed from the oocytes by vortexing for 3 min in the presence of 0.1% hyaluronidase. Oocytes with a visible polar body were selected in manipulation medium (TCM199 with 0.6 mM NaHCO3, 2.9 mM Hepes, 30 mM NaCl, 10 ng/mL gentamicin, and 3 mg/mL bovine serum albumin [BSA]; and osmolarity of 305) and then used for the experiments. Different oocyte activation methods were used for the experiments. As conventional activation methods, either electrical or chemical activation was used. For electrical activation, mature oocytes were activated in activation medium (0.3 M mannitol, 1.0 mM CaCl2, 0.1 mM MgCl2, and 0.5 mM Hepes) by two direct-current (DC) pulses (1-sec interval) at 1.2 kV/cm for 30 μsec (using BTX Electro Cell Manipulator, Harvard Apparatus, Holliston, Mass.). […] For TPEN mediated activation, mature oocytes were incubated in TL-Hepes media with various concentrations of TPEN for different durations. […] At the end of the culture, where applicable, the frequency of cleaved embryos and blastocysts, and total cell number in the blastocysts were recorded. Hoechst 33342 (1.2 mg/mL) was used to stain nuclei and the embryos were then evaluated by epi-fluorescence microscopy. […] The ability of TPEN as the main activating reagent was therefore tested. […] Then the oocytes were incubated with various concentrations (1 μM, 5 μM, 10 μM, 100 μM and 200 μM) and durations (10 minutes, 20 minutes, 30 minutes, 1 hour, 2 hours, and overnight) of TPEN. […] Optimal oocyte activation was observed when oocytes were activated by a smaller Ca^2+ signal followed by incubating in 200 μM TPEN for 30 min.

SCNT embryos = test: TPEN activation method on the development of SCNT embryos; type: cell-based, pig; conditions: SCNT embryos activated with TPEN (200 μM, 30 min) as major activating reagent
Experimental: At the end of the culture, where applicable, the frequency of cleaved embryos and blastocysts, and total cell number in the blastocysts were recorded. Hoechst 33342 (1.2 mg/mL) was used to stain nuclei and the embryos were then evaluated by epi-fluorescence microscopy. Additionally, the effect of the TPEN activation method alone on the development of SCNT embryos was tested.

`c1ccc(CN(CCN(Cc2ccccn2)Cc2ccccn2)Cc2ccccn2)nc1` [TPEN, N,N,N′,N′-tetrakis(2-pyridylmethyl)ethane-1,2-diamine] was tested, and the “cell numbers in day 7 blastocysts” value (porcine oocytes; 1 μM TPEN overnight) was 24.80±7.84, the “number of blastocysts at day 6 and 7” value (porcine oocytes; 1 μM TPEN overnight) was “increased number of blastocysts” and the “cell numbers in day 7 blastocysts” value (porcine oocytes; 10 μM TPEN for 1 hour) was 30.17±5.97. For the same compound, the “cell numbers in day 7 blastocysts” value (porcine oocytes; 10 μM TPEN for 2 hours) was 29.63±10.47, the “cell numbers in day 7 blastocysts” value (porcine oocytes; 100 μM TPEN for 20 minutes) was 50.75±17.94 and the “Day 6 Blastocysts (%)” value (porcine oocytes; then TPEN 10 μM, 30 min) was 0% and 0^b %. The “Day 7 Blastocysts (%)” value (porcine oocytes; then TPEN 10 μM, 30 min) was 5^b %, the “Day 6 Blastocysts (%)” value (porcine oocytes; then TPEN 10 μM, 1 hour) was 15^a % and the “Day 7 Blastocysts (%)” value (porcine oocytes; then TPEN 10 μM, 1 hour) was 22.5^a %. For the same compound, the “Day 6 Blastocysts (%)” value (porcine oocytes; then TPEN 10 μM, 2 hours) was 15^a %, the “Day 7 Blastocysts (%)” value (porcine oocytes; then TPEN 10 μM, 2 hours) was 25^a % and the “Day 6 Blastocysts (%)” value (porcine oocytes; then TPEN 100 μM, 10 min) was 15^a %. For the same compound, the “Day 7 Blastocysts (%)” value (porcine oocytes; then TPEN 100 μM, 10 min) was 15^a %, the “Day 6 Blastocysts (%)” value (porcine oocytes; then TPEN 100 μM, 20 min) was 25^a % and the “Day 7 Blastocysts (%)” value (porcine oocytes; then TPEN 100 μM, 20 min) was 30^a %. For the same compound, the “Day 6 Blastocysts (%)” value (porcine oocytes; then TPEN 200 μM, 30 min) was 37.04^c %, the “Day 7 Blastocysts (%)” value (porcine oocytes; then TPEN 200 μM, 30 min) was 41.98^c % and the “Day 6 Blastocysts (%)” value (porcine oocytes; then TPEN 200 μM, 1 hour) was 18.75^a %. The “Day 7 Blastocysts (%)” value (porcine oocytes; then TPEN 200 μM, 1 hour) was 27.5^a %, the “Day 6 blastocyst formation” value (SCNT embryos) was 25.8% (8/31) and the “Day 7 blastocyst formation” value (SCNT embryos) was 35.5% (11/31).
